{"source": "patent US6291470A", "about": "“Indole derivatives process for producing the same and medicinal uses of the same” (Toray Industries, Inc., priority 1992, dated 2001)", "key": {"δ-opioid receptor [1]": {"target": "T1, δ-opioid receptor (Mus musculus, UniProt P32300)", "T1 construct": "from tissue; host or cells: vas deferens of male ddy mice", "T1 sequence (P32300 whole entry)": "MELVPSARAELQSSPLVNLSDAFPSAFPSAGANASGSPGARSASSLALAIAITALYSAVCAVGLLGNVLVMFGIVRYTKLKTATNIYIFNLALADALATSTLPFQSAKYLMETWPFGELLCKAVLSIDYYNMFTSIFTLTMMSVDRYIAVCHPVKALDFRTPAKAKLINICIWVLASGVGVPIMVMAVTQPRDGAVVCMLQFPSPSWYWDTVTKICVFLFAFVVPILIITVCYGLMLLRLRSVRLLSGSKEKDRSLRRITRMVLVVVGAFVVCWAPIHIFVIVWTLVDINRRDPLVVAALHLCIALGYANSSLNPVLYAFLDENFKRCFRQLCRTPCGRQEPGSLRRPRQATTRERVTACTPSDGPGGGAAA", "test": "δ-opioid antagonist activity against DPDPE in mouse vas deferens (MVD)", "settings": "against DPDPE; test compound 100 nM, 20 min; read-out: Ke", "how_it_was_run": "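Vas deferens from male ddy mice in Krebs-Henseleit at 37 °C (5% CO2/95% O2), field-stimulated at 0.1 Hz, 5.0 ms, isometric contraction recorded. IC50 dose ratio, Ke and Schild pA2 derived.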"}, "δ-opioid receptor [2]": {"target": "T1, δ-opioid receptor", "test": "Change in δ-antagonist activity against DPDPE with time in mouse vas deferens (MVD)", "settings": "for Ratio of IC50 Values / Kb: 173 and NTI at 20 nM, 174 and 5'-NTII at 100 nM; for Kb: read-out: Ke", "experimental": "In this experiment, ddy male mice were used. In a Magnus' tube which is filled with Krebes-Henseleit solution (NaCl […]; KCl 4.7 mM; CaCl2 2.5 mM; KH2 PO4 1.1 mM; NaHCO3 25 mM; glucose 11 mM) kept at 37° C., and into which an atmosphere consisting of 5% carbon dioxide and 95% oxygen was flown, vas deferens taken from the animals was suspended. Electric stimulation was applied through ring-shaped platinum electrodes mounted on the upper and lower portions of the tube at a frequency of 0.1 Hz and 5.0 mS duration. The contraction of the tissue was recorded on polygraph using isometric transducer.\nThen 100 nM of the test compound was added. Twenty minutes later, DPDPE was begun to be added cumulatively. The ratio of IC50 values in the presence and absence of the test compound, Ke value (the molar concentration of the test compound necessary for translating the dose-effect curve to the curve of twice dose) and pA2 value were determined. The pA2 value was determined by the method of Shild et al (Shild, H. O., Br. J. Pharmac. Chamotehr., 4, 277 (1949)). That is, the logarithm of the test compound (log[test compound]) was plotted along the abscissa and the logarithm of the value obtained by subtracting 1 from the ratio of IC50 values was plotted in the presence and absence of the test compound [log(dose ratio-1)] along the ordinate. The pA2 value was determined from the value on the abscissa when the value on the ordinate of the obtained line is 0.\nUsing MVD, the antagonist activities of compounds 173 and 174 against DPDPE were determined. The ratio of IC50 values, Ke values and pA2 values at 15 minutes, 30 minutes and 1 hour from the addition of the test compounds were calculated. Since the concentrations of the test compounds are different, the reciprocals of Ke values were plotted in FIGS. 1 and 2."}, "[3]": {"system": "Cerebral cortex nerve cells", "test": "Brain cell-protecting action, MTT method", "format": "cell-based, rat", "settings": "10 μM", "experimental": "The brain cell-protecting action was examined by MTT [3-(4,5-dimethylthiazol-2-yl)-2,5-diphenyltetrazolium bromide] method. MTT yields a dark blue formazan compound by mitochondria in living cells. This compound was dissolved in isopropanol and absorbance at 570 nm was measured, thereby measuring the number of living cells.\nCerebral cortex nerve cells of fetal rats of 17 days old were placed in wells of a 96-well plate at a population density of 1×10^5 cells/cm^2. Then 10 μM of a test compound was added and the cells were cultured in 200 μl of mixed medium of D-MEM/F.12 (1:1) for 3 days (37° C., 5%CO2). In a control group, the medium alone was added Then […] of MTT solution in PBS (6mg/ml) was added and the mixture was allowed to react for 3 hours (37° C., 5% CO2). After removing the culture medium, 100 μl of isopropanol was added and the absorbance was measured.\nThe ratio of the absorbances of the study group and the control group was employed as an index of brain cell-protecting action."}, "[4]": {"system": "delayed type hypersensitivity", "test": "Mouse Delayed Type Hypersensitivity Reaction Suppression Test-1 (SRBC)", "format": "in vivo", "settings": "SRBC sensitization; subcutaneous, everyday from 3 days before sensitization, totally 8 days; BALB/c", "experimental": "BALB/c mice (male, 7 weeks old) were used. The mice were classified into groups depending on the body weight, each group consisting of 7-8 mice. Each of the mice was sensitized by subcutaneously administering […] of SRBC (8×10^8 in saline) on the heel of the left hing leg. On day 4 from the sensitization, 25 μl of SRBC (8×10^9 in saline) was subcutaneously administered on the right footpad so as to induce delayed type hypersensitivity. The difference in the thicknesses of the right footpad before the induction of reaction and 24 hours after the induction of the reaction was employed as an index of the degree of the reaction.\nThe test compound was dissolved in 10% DMSO-water and was subcutaneously administered everyday from 3 days before the sensitization to the day of induction of the reaction, totally 8 days. In the control group, 10% DMSO-water alone was administered in the same manner. The volume of administration was 5 ml/kg in both study groups and in the control group.\nThe % suppression of the delayed type hypersensitivity reaction was calculated according to the following equation: [formula]\nwherein A means the difference in the thickness of the right hind leg before and after the reaction in control group, and B means the difference in the thickness of the right hind leg before and after the reaction in the group to which the test compound was administered."}, "[5]": {"system": "delayed type hypersensitivity", "test": "Mouse Delayed Type Hypersensitivity Reaction Suppression Test-2 (donor spleen cells, subcutaneous administration)", "format": "in vivo", "settings": "C57BL/6 spleen cells; subcutaneous everyday from day of sensitization, totally 8 days; BALB/c", "from_the_text": "BALB/c mice (male, 7 weeks old) were used, and each group consisted of 4-5 mice. Spleen cells (1×10^7 ) obtained from a donor mouse (C57BL/6) was subcutaneously administered to sensitize the mice. On Day 7 from the sensitization, the spleen cells (5×10^6) of the donor were subcutaneously administered on the right hing leg and spleen cells (5×10^6) obtained from a mouse of the same line as the recipient mice were subcutaneously administered on the left footpad. Twenty four hours later, the thicknesses of the right and left footpads were measured with a dial thickness gage, and the difference in thicknesses of the right and left footpads before the induction of the reaction and 24 hours after the induction of the reaction was employed as the index of the degree of the reaction.\nThe test compound was dissolved in 10% DMSO-water and was subcutaneously administered everyday from the day of sensitization to the day of induction of the reaction, totally 8 days. In the control group, 10% DMSO-water alone was administered in the same manner. The volume of administration was 10 ml/kg in both study groups and in the control group. Delayed Type Hypersensitivity Reaction=(thickness of right foodpad after induction-thickness of right footpad before induction)-(thickness of […] before induction) [formula]\nwherein C means delayed type hypersensitivity reaction of the group to which the test compound was administered and D means the delayed type hypersensitivity reaction of the group to which vehicle was administered."}, "immune system": {"system": "immune system", "settings": "in vitro and in vivo; Kokai No. 3-223288; cited from earlier work"}}, "data": [{"smiles": "Oc1ccc2c3c1O[C@H]1c4[nH]c5ccccc5c4C[C@@]4(O)[C@@H](C2)N(CC2CC2)CC[C@]314", "note": "[NTI, reference compound]", "values": [{"measurement": "Kb", "setting": "δ-opioid receptor [1]", "result": 0.21, "unit": "nM"}, {"measurement": "Ratio of IC50 Values", "setting": "δ-opioid receptor [2]; 15 min", "result": 96.3}, {"measurement": "Kb", "setting": "δ-opioid receptor [2]; 15 min", "result": 0.21, "unit": "nM"}, {"measurement": "change of antagonist activity with time (in words)", "setting": "δ-opioid receptor [2]; 15 min to 1 hour", "result": "did not change"}, {"measurement": "Ratio of IC50 Values", "setting": "δ-opioid receptor [2]; 30 min", "result": 95.6}, {"measurement": "Kb", "setting": "δ-opioid receptor [2]; 30 min", "result": 0.21, "unit": "nM"}, {"measurement": "Ratio of IC50 Values", "setting": "δ-opioid receptor [2]; 60 min", "result": 83.7}, {"measurement": "Kb", "setting": "δ-opioid receptor [2]; 60 min", "result": 0.24, "unit": "nM"}, {"measurement": "brain cell-protecting action (in words)", "setting": "[3]; MTT", "result": "has brain cell-protecting action"}, {"measurement": "Ratio of Absorbances", "setting": "[3]; study group / control group, 570 nm, 3 days culture", "result": 4.21}, {"measurement": "% Suppression", "setting": "[4]", "result": "did not suppress"}, {"measurement": "% Suppression", "setting": "[5]", "result": 60, "unit": "%"}, {"measurement": "immunosuppressive action (in words)", "setting": "immune system", "result": "exhibits immunosuppressive action in vitro and in vivo"}]}]}
